From US11198869B2, “Angelman syndrome antisense treatment” (The Texas A&M University System, priority 2017, dated 2021)
Where two headings read alike, the source gives them in different places.

Key:
IPW = IPW steady state RNA (qRT-PCR) in GABAergic iPSC-derived neurons; conditions: 10-point dose curve 1 nM-30 μM; 14 DIV to 20 DIV
SNRPN = assay: RNA-sequencing of Angelman syndrome iPSC neurons: SNRPN; assay type: cell-based, human; conditions: 30 μM; six days post-treatment; RNA-seq
Description: RNA was isolated using Qiagen RNAeasy Plus (74136, Qiagen, Hilden, Germany). RNA concentration was determined using Qubit Fluorometric Quantitation (Thermo Fisher Scientific) and RNA quality was assessed using a 4200 Agilent TapeStation (Agilent, Santa Clara, Calif.). RNA-sequencing libraries were generated using the Illumina TruSeq Stranded Total RNA kit (20020597, Illumina, Inc., San Diego, Calif.) according to the manufacturer's protocol. 75 base-pair paired-end sequencing was performed using a NextSeq 500 (IIlumina, San Diego, Calif.) at the Texas A&M Institute for Genome Sciences and Society Genomics core. Raw sequencing reads were processed using CASAVA. The resulting FASTQ sequences were examined using FASTQC. […]
To determine whether ASO-4.4.PS.L and ASO-6.1.PO-1.O affect the levels of RNA transcripts encoded by the PWS polycistronic transcript, RNA-sequencing was performed on AS iPS cells treated with each ASO and the steady state RNA levels of SNURF, SNRPN, the SNORD116 host-gene transcript (SNHG116), the SNORD116 snoRNAs, IPW, the SNORD115 host-gene transcript (SNHG115), the SNORD115 snoRNAs, and UBE3A-AS were quantified. UBE3A steady state RNA levels were also measured. […]

UBE3A-AS = UBE3A-AS steady state RNA (qRT-PCR) in glutamatergic iPSC-derived neurons; assay type: cell-based, human; conditions: for 30 μM (Mean), normalized UBE3A-AS RNA level relative to vehicle / Emax Estimate (normalized UBE3A-AS RNA level relative to vehicle): 14 DIV to 20 DIV
Description: ASO-4 and ASO-6.1 were also examined in glutamatergic iPSC-derived neurons. Glutamatergic iPSC-derived neurons were treated at 14 DIV with a 10-point ½ log dose response curve of ASO-4 and ASO-6.1 [1 nM, 3 nM, 10 nM, 30 nM, 100 nM, 300 nM, 1 μM, 3 μM, 10 μM, and 30 μM (n=3)]. At 20 DIV, the IC50 and Emax of each ASO was estimated as described above (FIG. 5E-F and Table 15).
GABAergic and glutamatergic induced pluripotent stem cell (iPSC) derived neural precursor cells (NRC-100-010-001 and GNC-301-030-001, Cellular Dynamics International, Madison Wis.) were differentiated into neurons according to the manufactures protocol. Briefly, neural precursor cells were thawed and resuspended in chemically defined medium and added to sterile-culture plates coated with poly-D-lysine and laminin. The medium was replaced 24 hr after plating and then one-half of the medium was replaced every 3-5 days afterwards.
For cultured iPSC-derived neurons, RNA isolation and cDNA synthesis were performed using the Cell-to-CT kit (Thermo Fisher Scientific) in a lysate volume of 55 μl.
The steady state RNA levels of target transcripts were measured using TaqMan quantitative reverse-transcription PCR (qRT-PCR) assays. Total reaction volume was 10 uL, including 2 μl of cDNA, 1× Gene Expression Master mix (4369016, Thermo Fisher Scientific, Waltham, Mass.), and 1× TaqMan primer assay (Thermo Fisher Scientific). Cycling conditions were 2 minutes at 50° C., 10 minutes at 95° C., and 40 cycles of 15 seconds at 95° C. and 1 minute at 60° C., with readings taken at the 60° C. step of every cycle. Reactions were run on a BIO-RAD T1000 CFX96 thermocycler (Bio-Rad Laboratories, Hercules Calif.), with internal control (PPIA, Hs99999904_m1, Thermo Fisher Scientific) and target [UBE3A-AS, Hs01372957_m1; SNORD116-11, Hs04275268_gH; SNORD115, Hs04275288_gH; IPW, Hs03455409_s1; SNORD109A/B, AP47WVR (Thermo Fisher Scientific); UBE3A: forward […] (SEQ ID NO:500); reverse: […] (SEQ ID NO:501); and, probe: […] (SEQ ID NO:502)] reactions performed together. Data was retrieved and analyzed with the BIORAD CFX Maestro software (Bio-Rad Laboratories). Samples with internal control Cq values ≥30 were filtered. Quality of data was visually inspected to identify discrepancies between technical and/or plate replicates. Measurements for inferential statistics and descriptive statistics consist of ΔΔCq values (2^−ΔΔCq=2^−(Cq[target]−Cq[internal control])−(Cq[target]−Cq[internal control])).

[1] = parallel model, 4 Parameter logistic, read-out: IC50 (M), UBE3A-AS
[2] = treated 14 DIV, RNA 20 DIV, 10-point dose curve, full model, 4-parameter logistic (Hill), read-out: IC50 Estimate, UBE3A-AS

Molecule | effect on IPW RNA levels (in words) (IPW) | Difference, SNRPN RNA level relative to vehicle (SNRPN) | 30 μM (Mean), normalized UBE3A-AS RNA level relative to vehicle (UBE3A-AS) | Emax Estimate (normalized UBE3A-AS RNA level relative to vehicle) (UBE3A-AS; 4-parameter logistic (Hill)) | IC50 (UBE3A-AS; [1]) | IC50 (UBE3A-AS; [2]) | Relative Potency (UBE3A-AS; parallel model, relative to ASO-4 = 1)
CC[C@@]1(O)C(=O)OCc2c1cc1n(c2=O)Cc2cc3c(CN(C)C)c(O)ccc3nc2-1 [Topotecan, reference compound] | significant effect on SNORD116, IPW, SNORD115, and SNORD109A/B RNA levels that was dose dependent |  |  |  |  |  | 
A^L*G^L*A^L*a*t*g*g*c*a*c*a*t*c*t*5mC^L*T^L*T^L*G^L (NNNATGGCACATCTNNNN; LNA gapmer, PS, 5-methylcytosine, chemistry not fully specified) [ASO-4.4.PS.L] |  | −0.02 |  |  |  |  | 
C^O*U^O*G^O*G^O*t*g*t*c*a*a*c*a*a*g*C^O*C^O*A^O*A^O [ASO-6.1] |  |  | 0.04 | −0.27 | 7.8e-07 M | 2.44e-07 M | 
C^O*U^O*G^O*G^O-t*g*t*c*a*a*c*a*a*g-C^O*C^O*A^O*A^o [ASO-6.1.PO-1.O] |  | 0.03 |  |  |  |  | 
U^O*A^O*G^O*A^O*A^O*t*g*g*c*a*c*a*t*c*t*C^O*U^O*U^O*G^O*G^O [ASO-4] | significant effect on the RNA levels of IPW, SNORD115, and SNORD109A/B but not in a dose dependent manner |  | 0.17 | −1.45 | 3.06e-06 M | 0.000121 M | 1
